Patent US9193898B2, “Environmentally friendly dispersion system used in the preparation of inverse emulsion polymers” (priority 2011, dated 2015)

How the values were obtained:
[1] = Description: With this in mind, it was desired to create an environmentally friendly oil phase system useful for making inverse emulsion polymers. The adopted definition of environmentally friendly are the rules that govern offshore chemical use in the North Sea. The environmental impact of a chemical is defined by three tests: bioaccumulation, biodegradation and toxicity. In order for a chemical to be used without restriction offshore in the North Sea it must satisfy two of the following three criteria: • 1. Biodegradation must be greater than 60%, if less than 20% it is automatically marked for substitution. • 2. Bioaccumulation as measured by octanol/water partitioning coefficient (log Po/w) must be below 3 (or have a molecular weight>700). • 3. Toxicity to the most sensitive marine species (typically Skeletonema) must be greater than LC50 or EC50 of 10 ppm. […]
An embodiment of the present invention is an environmentally friendly oil phase system comprising an organic solvent and lecithin. The immiscible organic solvent can be a hydrocarbon solvent that is aliphatic or at least one oil derived from one or more natural products, and are at least 60% biodegradable after 28 days as determined by the Organization for Economic Cooperation and Development, Procedure OECD 306, its text incorporated by reference. […]

[2] = Bioaccumulation as octanol/water partitioning coefficient (log Po/w); type: physicochemical
Description: (§1) With this in mind, it was desired to create an environmentally friendly oil phase system useful for making inverse emulsion polymers. The adopted definition of environmentally friendly are the rules that govern offshore chemical use in the North Sea. The environmental impact of a chemical is defined by three tests: bioaccumulation, biodegradation and toxicity. In order for a chemical to be used without restriction offshore in the North Sea it must satisfy two of the following three criteria: • 1. Biodegradation must be greater than 60%, if less than 20% it is automatically marked for substitution. • 2. Bioaccumulation as measured by octanol/water partitioning coefficient (log Po/w) must be below 3 (or have a molecular weight>700). • 3. Toxicity to the most sensitive marine species (typically Skeletonema) must be greater than LC50 or EC50 of 10 ppm.

[3] = tested on: most sensitive marine species (typically Skeletonema); experiment: Toxicity to the most sensitive marine species (EC50); settings: environmental profile of dispersion system components
Description: as §1

[4] = cited from earlier work

Substance	Biodegradation, t = 28 days [1]	Bioaccumulation log Po/w [2]	Toxicity EC50 [3] [ppm]	log P [4]
POE(4)-sorbitan monostearate	27	<3	165	
POE(5)-sorbitan monooleate	52	<3	20	
sorbitan monooleate				> 3
